Data on 19 compounds can be found in patent publication US10125134B2 (Mirati Therapeutics, Inc., priority 2016, dated 2018).

In assay [1] the test system is NCI-H358 cells (express KRas G12C), Phospho-ERK. Kind of assay: Cellular inhibition of KRas G12C: Phospho-ERK in NCI-H358 cells. The class given is cell-based. Particulars: Homo sapiens, pERK(Thr202/Tyr204) normalized with GAPDH, NCI-H358 cells, 3 hours, read-out: IC50. The method, boiled down: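 IC50 derived by 4-parameter fit of GAPDH-normalized pERK(Thr202/Tyr204) signal, as percent of DMSO control. Signal came from in-cell immunodetection with infrared secondaries after 3 h compound exposure of KRas G12C NCI-H358 cells at 0.5% DMSO.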

For assay [2], the target named is KRas G12C (Homo sapiens, UniProt P01116, C118S/C51S/C80L/G12C). Kind of assay: KRas G12C Modification Assay (LCMS detection of covalent adduct). It is filed as binding. The settings on record: normalized percent of control; tested at 5 μM concentration for 3 hours. The method, boiled down:
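Covalent modification was read by reverse-phase LC/MS of intact protein after compound exposure, each reaction stopped at its time point with 25 mM acetic acid. Unmodified-protein signal, taken as percent of total, was normalised to untreated protein and reported as POC.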

Molecules are shown by their SMILES. pIC50: −log10 of the molar value. Read-outs that look alike come from different tables or passages of the source.

As for `C=CC(=O)N1CCN(c2nc(OC[C@@H]3CCCN3C)nc3c2CCN(c2cccc(F)c2C(F)(F)F)C3)C[C@@H]1CC#N` [Example 328, 2-((S)-1-acryloyl-4-(7-(3-fluoro-2-(trifluoromethyl)phenyl)-2-(((S)-1-methylpyrrolidin-2-yl)methoxy)-5,6,7,8-tetrahydropyrido[3,4-d]pyrimidin-4-yl)piperazin-2-yl)acetonitrile], the pIC50 – broadly, −log10 of the IC50, conventionally taken in molar units – in assay [1] (NCI-H358, 3 h) is 6.00 to 10.00. Besides, the POC entry in assay [2] is recorded as “C (“C”>50% POC)”.

In the case of `C=CC(=O)N1CCN(c2nc(OC[C@H]3CCCN3CCO)nc3c2CCN(c2cccc4ccccc24)C3)C[C@@H]1CC#N` [Example 329, 2-[(2S)-4-[2-[[(2R)-1-(2-hydroxyethyl)pyrrolidin-2-yl]methoxy]-7-(1-naphthyl)-6,8-dihydro-5H-pyrido[3,4-d]pyrimidin-4-yl]-1-prop-2-enoyl-piperazin-2-yl]acetonitrile], the pIC50 in assay [1] (NCI-H358, 3 h) is 6.00 to 10.00. In addition, the POC result in assay [2] is on record as “C (“C”>50% POC)”.

For the compound `C=CC(=O)N1CCN(c2nc(OC[C@@H]3CCCN3C)nc3c2CCN(c2cccc(OC)c2C(F)(F)F)C3)C[C@@H]1CC#N` [Example 330, 2-[(2S)-4-[7-[3-methoxy-2-(trifluoromethyl)phenyl]-2-[[(2S)-1-methylpyrrolidin-2-yl]methoxy]-6,8-dihydro-5H-pyrido[3,4-d]pyrimidin-4-yl]-1-prop-2-enoyl-piperazin-2-yl]acetonitrile], the pIC50 in assay [1] (NCI-H358, 3 h) was 6.00 to 10.00. In addition, the POC result in assay [2] is on record as “C (“C”>50% POC)”.

As to `C=CC(=O)N1CCN(c2nc(OC[C@@H]3C[C@@H](OC)CN3C)nc3c2CCN(c2cccc(Cl)c2C(F)(F)F)C3)C[C@@H]1CC#N` [Example 332, 2-[(2S)-4-[7-[3-chloro-2-(trifluoromethyl)phenyl]-2-[[(2S,4R)-4-methoxy-1-methyl-pyrrolidin-2-yl]methoxy]-6,8-dihydro-5H-pyrido[3,4-d]pyrimidin-4-yl]-1-prop-2-enoyl-piperazin-2-yl]acetonitrile], the pIC50 in assay [1] (NCI-H358, 3 h) was 6.00 to 10.00. In addition, the POC entry in assay [2] is recorded as “C (“C”>50% POC)”.

In the case of `C=CC(=O)N1CCN(c2nc(OC[C@@H]3CCCN3C)nc3c2CCN(c2cccc4ccc(F)cc24)C3)C[C@@H]1CC#N` [Example 333, 2-[(2S)-4-[7-(7-fluoro-1-naphthyl)-2-[[(2S)-1-methylpyrrolidin-2-yl]methoxy]-6,8-dihydro-5H-pyrido[3,4-d]pyrimidin-4-yl]-1-prop-2-enoyl-piperazin-2-yl]acetonitrile], the pIC50 in assay [1] (NCI-H358, 3 h) was 6.00 to 10.00. Moreover, the POC result in assay [2] is “C (“C”>50% POC)”.

With `C=CC(=O)N1CCN(c2nc(OC[C@H]3CCCN3CC)nc3c2CCN(c2cccc4ccccc24)C3)C[C@@H]1CC#N` [Example 334, 2-[(2S)-4-[2-[[(2R)-1-ethylpyrrolidin-2-yl]methoxy]-7-(1-naphthyl)-6,8-dihydro-5H-pyrido[3,4-d]pyrimidin-4-yl]-1-prop-2-enoyl-piperazin-2-yl]acetonitrile], in assay [1] (NCI-H358, 3 h), the negative logarithm of the IC50 (pIC50) is 6.00 to 10.00. Further, in assay [2], the POC result was “C (“C”>50% POC)”.

Regarding `C=CC(=O)N1CCN(c2nc(OC[C@@H]3C[C@@H](OC)CN3CC)nc3c2CCN(c2cccc(Cl)c2C(F)(F)F)C3)C[C@@H]1CC#N` [Example 335, 2-[(2S)-4-[7-[3-chloro-2-(trifluoromethyl)phenyl]-2-[[(2S,4R)-1-ethyl-4-methoxy-pyrrolidin-2-yl]methoxy]-6,8-dihydro-5H-pyrido[3,4-d]pyrimidin-4-yl]-1-prop-2-enoyl-piperazin-2-yl]acetonitrile], the pIC50 in assay [1] (NCI-H358, 3 h) was 6.00 to 10.00. In addition, the POC entry in assay [2] is “C (“C”>50% POC)”.

On to `C=CC(=O)N1C[C@H](C)N(c2nc(OC[C@@H]3CCCN3C)nc3c2CCN(c2cc(O)cc4ccccc24)C3)C[C@H]1C` [Example 336, 1-[(2R,5S)-4-[7-(3-hydroxy-1-naphthyl)-2-[[(2S)-1-methylpyrrolidin-2-yl]methoxy]-6,8-dihydro-5H-pyrido[3,4-d]pyrimidin-4-yl]-2,5-dimethyl-piperazin-1-yl]prop-2-en-1-one], for which, in assay [1] (NCI-H358, 3 h), the pIC50 was 6.00 to 10.00. In assay [2], the POC result is on record as “C (“C”>50% POC)”.

Consider `C=CC(=O)N1CCN(c2nc(OC[C@@H]3CCCN3C)nc3c2CCN(c2cccc(Cl)c2CC)C3)C[C@@H]1CC#N` [Example 337, 2-[(2S)-4-[7-(3-chloro-2-ethyl-phenyl)-2-[[(2S)-1-methylpyrrolidin-2-yl]methoxy]-6,8-dihydro-5H-pyrido[3,4-d]pyrimidin-4-yl]-1-prop-2-enoyl-piperazin-2-yl]acetonitrile], for which the pIC50 in assay [1] (NCI-H358, 3 h) is 6.00 to 10.00. In assay [2], the POC result is reported as “C (“C”>50% POC)”.

`C=CC(=O)N1CCN(c2nc(OC[C@@H]3CCCN3C)nc3c2CCN(c2cccc4cccc(F)c24)C3)C[C@@H]1CC#N` [Example 338, 2-((S)-1-acryloyl-4-(7-(8-fluoronaphthalen-1-yl)-2-(((S)-1-methylpyrrolidin-2-yl)methoxy)-5,6,7,8-tetrahydropyrido[3,4-d]pyrimidin-4-yl)piperazin-2-yl)acetonitrile]: the pIC50 in assay [1] (NCI-H358, 3 h) was 6.00 to 10.00. Further, the POC entry in assay [2] is given as “C (“C”>50% POC)”.

Take `C=CC(=O)N1CCN(c2nc(OC[C@@H]3CCCN3CC)nc3c2CCN(c2cccc(Cl)c2C(F)(F)F)C3)C[C@@H]1CC#N` [Example 339, 2-((S)-1-acryloyl-4-(7-(3-chloro-2-(trifluoromethyl)phenyl)-2-(((S)-1-ethylpyrrolidin-2-yl)methoxy)-5,6,7,8-tetrahydropyrido[3,4-d]pyrimidin-4-yl)piperazin-2-yl)acetonitrile]: the pIC50 in assay [1] (NCI-H358, 3 h) is 6.00 to 10.00. In addition, the POC result in assay [2] was “C (“C”>50% POC)”.

In the case of `C=CC(=O)N1CCN(c2nc(OC[C@@H]3CCCN3C)nc3c2CCN(c2cnccc2OC)C3)C[C@@H]1CC#N` [Example 340, 2-((S)-1-acryloyl-4-(7-(4-methoxypyridin-3-yl)-2-(((S)-1-methylpyrrolidin-2-yl)methoxy)-5,6,7,8-tetrahydropyrido[3,4-d]pyrimidin-4-yl)piperazin-2-yl)acetonitrile], the pIC50 in assay [1] (NCI-H358, 3 h) is under 6.00. Further, the POC entry in assay [2] is “C (“C”>50% POC)”.

On to `C=CC(=O)N1CCN(c2nc(OC[C@@H]3CCCN3CCO)nc3c2CCN(c2cccc4ccccc24)C3)C[C@@H]1CC#N` [Example 341, 2-((S)-1-acryloyl-4-(2-(((S)-1-(2-hydroxyethyl)pyrrolidin-2-yl)methoxy)-7-(naphthalen-1-yl)-5,6,7,8-tetrahydropyrido[3,4-d]pyrimidin-4-yl)piperazin-2-yl)acetonitrile], for which, in assay [1] (NCI-H358, 3 h), the pIC50 was 6.00 to 10.00. Besides, in assay [2], the POC entry is listed as “C (“C”>50% POC)”.

`CN(C)C/C=C/C(=O)N1CCN(c2nc(OC[C@@H]3C[C@@H](O)CN3C)nc3c2CCN(c2cccc(F)c2C(F)(F)F)C3)C[C@@H]1CC#N` [Example 342, 2-[(2S)-1-[(E)-4-(dimethylamino)but-2-enoyl]-4-[7-[3-fluoro-2-(trifluoromethyl)phenyl]-2-[[(2S,4R)-4-hydroxy-1-methyl-pyrrolidin-2-yl]methoxy]-6,8-dihydro-5H-pyrido[3,4-d]pyrimidin-4-yl]piperazin-2-yl]acetonitrile]: the pIC50 in assay [1] is 6.00 to 10.00. Further, the POC result in assay [2] is recorded as “C (“C”>50% POC)”.

Consider `C=CS(=O)(=O)N1CCN(c2nc(OC[C@@H]3CCCN3C)nc3c2CCN(c2cccc(C)c2C)C3)CC1` [Example 343, (S)-7-(2,3-dimethylphenyl)-2-((1-methylpyrrolidin-2-yl)methoxy)-4-(4-(vinylsulfonyl)piperazin-1-yl)-5,6,7,8-tetrahydropyrido[3,4-d]pyrimidine], for which the pIC50 in assay [1] (NCI-H358, 3 h) is under 6.00. In addition, in assay [2], the POC result is given as “C (“C”>50% POC)”.

With `C=CC(=O)N1CCN(c2nc(OC[C@H]3CCCN3C)nc3c2CCN(c2cc(O)cc4ccccc24)C3)C[C@@H]1CC#N` [Example 344, 2-[(2S)-4-[7-(3-hydroxy-1-naphthyl)-2-[[(2R)-1-methylpyrrolidin-2-yl]methoxy]-6,8-dihydro-5H-pyrido[3,4-d]pyrimidin-4-yl]-1-prop-2-enoyl-piperazin-2-yl]acetonitrile], the pIC50 in assay [1] (NCI-H358, 3 h) is 6.00 to 10.00. The POC result in assay [2] is on record as “C (“C”>50% POC)”.

For the compound `C=CC(=O)N1CCN(c2nc(OC[C@@H]3CCCN3C)nc3c2CCN(c2ccncc2C)C3)C[C@@H]1CC#N` [Example 345, 2-[(2S)-4-[7-(3-methyl-4-pyridyl)-2-[[(2S)-1-methylpyrrolidin-2-yl]methoxy]-6,8-dihydro-5H-pyrido[3,4-d]pyrimidin-4-yl]-1-prop-2-enoyl-piperazin-2-yl]acetonitrile], the pIC50 in assay [1] (NCI-H358, 3 h) was under 6.00. Also, the POC entry in assay [2] is “C (“C”>50% POC)”.

Regarding `CN1CCC[C@H]1COc1nc2c(c(N3CCN(C(=O)/C=C/CN4CCOCC4)[C@@H](CC#N)C3)n1)CCN(c1cccc(Cl)c1C(F)(F)F)C2` [Example 346, 2-[(2S)-4-[7-[3-chloro-2-(trifluoromethyl)phenyl]-2-[[(2S)-1-methylpyrrolidin-2-yl]methoxy]-6,8-dihydro-5H-pyrido[3,4-d]pyrimidin-4-yl]-1-[(E)-4-morpholinobut-2-enoyl]piperazin-2-yl]acetonitrile], the pIC50 in assay [1] (NCI-H358, 3 h) is 6.00 to 10.00. The POC entry in assay [2] is “C (“C”>50% POC)”.

Consider `CN1CCC[C@H]1COc1nc2c(c(N3CCN(C(=O)/C=C/CN4CCCC4)[C@@H](CC#N)C3)n1)CCN(c1cccc(Cl)c1C(F)(F)F)C2` [Example 347, 2-[(2S)-4-[7-[3-chloro-2-(trifluoromethyl)phenyl]-2-[[(2S)-1-methylpyrrolidin-2-yl]methoxy]-6,8-dihydro-5H-pyrido[3,4-d]pyrimidin-4-yl]-1-[(E)-4-pyrrolidin-1-ylbut-2-enoyl]piperazin-2-yl]acetonitrile], for which the pIC50 in assay [1] (NCI-H358, 3 h) is 6.00 to 10.00. The POC entry in assay [2] was “C (“C”>50% POC)”.
